SMILES strings stand for the structures.

As a reminder, the logP is the decadic logarithm of the partition coefficient of the neutral form, usually between octanol and water. Low readings indicate a more hydrophilic compound, high ones a more lipophilic compound. In turn, `COc1cccc(N=C=S)c1` returned a logP of 3.68. With `CCCCN=C=S`, the logP stood at 2.92. For `COc1ccc(N=C=S)cc1` the value was 3.58; for `S=C=Nc1cccc(Br)c1`, 4.12; for `S=C=Nc1ccc(Cl)cc1`, 3.91.

Consider `CC(C)CN=C=S`, for which the logP was found to be 2.82.

Consider `O=C(O)c1ccc(N=C=S)cc1`, for which the logP turned out to be 2.44. With `N#Cc1ccc(N=C=S)cc1` the figure was 2.65; with `O=[N+]([O-])c1ccc(N=C=S)cc1`, 3.55; with `CN=C=S`, 0.94. Consider `N#Cc1cccc(N=C=S)c1`, for which the logP was 3.13. With `O=C(O)c1cccc(N=C=S)c1` the figure was 2.4; with `Oc1cccc(N=C=S)c1`, 3.23; with `Cc1ccc(N=C=S)cc1`, 3.9.

The molecule `CCC(C)N=C=S` (stereo not drawn) registered a logP of 2.81. `S=C=Nc1ccc(I)cc1` yielded a logP of 4.22.

For the molecule `CN(C)c1ccc(N=C=S)cc1`, the logP stood at 3.96. With `S=C=Nc1cccc(Cl)c1` the figure was 3.36.
